Measured values from PubChem BioAssay AID1963838 (Molecular Pharmacology Branch, DTP, NCI, 2024).

System: 855422-203-R-J1-PDC complex spheroid viability
Assay: Anticancer human tumor 855422-203-R-J1-PDC patient-derived bladder carcinoma cell line growth inhibition [POLQ]
Conditions: for IC50: curve of first compound; for viability, T/C: stronger effect = lower value
Method in brief: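 Patient-derived tumour cells were co-cultured with HUVEC and mesenchymal stem cells as multicellular spheroids at 37 °C. They were treated with POLQ inhibitors (novobiocin, ART-558, RP6685) alone or combined with other agents. Top concentrations were at or near clinical Cmax (otherwise 10 microM; SN-38 at 1 microM), decreasing in half-log steps.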

[1] = second compound 0.0316 µM, first compound 0.00316 µM
[2] = second compound 0.0316 µM, first compound 0.01 µM
[3] = second compound 0.0316 µM, first compound 0.0316 µM
[4] = second compound 0.0316 µM, first compound 0.1 µM
[5] = second compound 0.0316 µM, first compound 0.316 µM
[6] = second compound 0.0316 µM, first compound 1 µM
[7] = second compound 0.1 µM, first compound 0.00316 µM
[8] = second compound 0.1 µM, first compound 0.01 µM
[9] = second compound 0.1 µM, first compound 0.0316 µM
[10] = second compound 0.1 µM, first compound 0.1 µM
[11] = second compound 0.1 µM, first compound 0.316 µM
[12] = second compound 0.1 µM, first compound 1 µM
[13] = second compound 0.316 µM, first compound 0.00316 µM
[14] = second compound 0.316 µM, first compound 0.01 µM
[15] = second compound 0.316 µM, first compound 0.0316 µM
[16] = second compound 0.316 µM, first compound 0.1 µM
[17] = second compound 0.316 µM, first compound 0.316 µM
[18] = second compound 0.316 µM, first compound 1 µM
[19] = second compound 1 µM, first compound 0.00316 µM
[20] = second compound 1 µM, first compound 0.01 µM
[21] = second compound 1 µM, first compound 0.0316 µM
[22] = second compound 1 µM, first compound 0.1 µM
[23] = second compound 1 µM, first compound 0.316 µM
[24] = second compound 1 µM, first compound 1 µM
[25] = second compound 3.16 µM, first compound 0.00316 µM
[26] = second compound 3.16 µM, first compound 0.01 µM
[27] = second compound 3.16 µM, first compound 0.0316 µM
[28] = second compound 3.16 µM, first compound 0.1 µM
[29] = second compound 3.16 µM, first compound 0.316 µM
[30] = second compound 3.16 µM, first compound 1 µM
[31] = second compound 10 µM, first compound 0.00316 µM
[32] = second compound 10 µM, first compound 0.01 µM
[33] = second compound 10 µM, first compound 0.0316 µM
[34] = second compound 10 µM, first compound 0.1 µM
[35] = second compound 10 µM, first compound 0.316 µM
[36] = second compound 10 µM, first compound 1 µM
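Also: spheroids exposed to compounds for seven days before readout.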

C=CCn1c(=O)c2cnc(Nc3ccc(N4CCN(C)CC4)cc3)nc2n1-c1cccc(C(C)(C)O)n1 + Cc1cccc(N(C)C(=O)C2C(O)CCN2c2nc(C)cc(C(F)(F)F)c2C#N)c1
IC50 (second compound 0.0316 µM): > 1000 nM
IC50 (second compound 0.1 µM): > 1000 nM
IC50 (second compound 0.316 µM): > 1000 nM
IC50 (second compound 1 µM): > 1000 nM
IC50 (second compound 3.16 µM): > 1000 nM
IC50 (second compound 10 µM): > 1000 nM
viability, T/C [1]: 109%
viability, T/C [2]: 124%
viability, T/C [3]: 98%
viability, T/C [4]: 100%
viability, T/C [5]: 113%
viability, T/C [6]: 148%
viability, T/C [7]: 110%
viability, T/C [8]: 122%
viability, T/C [9]: 93%
viability, T/C [10]: 99%
viability, T/C [11]: 124%
viability, T/C [12]: 175%
viability, T/C [13]: 102%
viability, T/C [14]: 101%
viability, T/C [15]: 95.7%
viability, T/C [16]: 101%
viability, T/C [17]: 126%
viability, T/C [18]: 173%
viability, T/C [19]: 87.7%
viability, T/C [20]: 112%
viability, T/C [21]: 91.1%
viability, T/C [22]: 118%
viability, T/C [23]: 124%
viability, T/C [24]: 165%
viability, T/C [25]: 91.4%
viability, T/C [26]: 107%
viability, T/C [27]: 100%
viability, T/C [28]: 105%
viability, T/C [29]: 115%
viability, T/C [30]: 186%
viability, T/C [31]: 119%
viability, T/C [32]: 105%
viability, T/C [33]: 115%
viability, T/C [34]: 137%
viability, T/C [35]: 208%
viability, T/C [36]: 123%

CC1COCCN1c1cc(-c2ccnn2C)c2ccnc(-c3ccn[nH]3)c2n1 (stereo unspecified) + Cc1cccc(N(C)C(=O)C2C(O)CCN2c2nc(C)cc(C(F)(F)F)c2C#N)c1
IC50 (second compound 0.0316 µM): 168 nM
IC50 (second compound 0.1 µM): 152 nM
IC50 (second compound 0.316 µM): 167 nM
IC50 (second compound 1 µM): 165 nM
IC50 (second compound 3.16 µM): 155 nM
IC50 (second compound 10 µM): 167 nM
viability, T/C [3]: 113%
viability, T/C [4]: 73%
viability, T/C [5]: 21.4%
viability, T/C [6]: 12.4%
viability, T/C (second compound 0.0316 µM, first compound 3.16 µM): 7.93%
viability, T/C (second compound 0.0316 µM, first compound 10 µM): 7.23%
viability, T/C [9]: 94.7%
viability, T/C [10]: 68.9%
viability, T/C [11]: 17.3%
viability, T/C [12]: 9.3%
viability, T/C (second compound 0.1 µM, first compound 3.16 µM): 8.23%
viability, T/C (second compound 0.1 µM, first compound 10 µM): 7.12%
viability, T/C [15]: 108%
viability, T/C [16]: 73.4%
viability, T/C [17]: 20.4%
viability, T/C [18]: 10.9%
viability, T/C (second compound 0.316 µM, first compound 3.16 µM): 7.43%
viability, T/C (second compound 0.316 µM, first compound 10 µM): 7.37%
viability, T/C [21]: 111%
viability, T/C [22]: 70.3%
viability, T/C [23]: 23.3%
viability, T/C [24]: 11.7%
viability, T/C (second compound 1 µM, first compound 3.16 µM): 8.35%
viability, T/C (second compound 1 µM, first compound 10 µM): 7.83%
viability, T/C [27]: 105%
viability, T/C [28]: 66.8%
viability, T/C [29]: 22.7%
viability, T/C [30]: 10.6%
viability, T/C (second compound 3.16 µM, first compound 3.16 µM): 7.46%
viability, T/C (second compound 3.16 µM, first compound 10 µM): 6.31%
viability, T/C [33]: 93.5%
viability, T/C [34]: 70.3%
viability, T/C [35]: 24.7%
viability, T/C [36]: 12.4%
viability, T/C (second compound 10 µM, first compound 3.16 µM): 8.8%
viability, T/C (second compound 10 µM, first compound 10 µM): 9.23%

CCc1c2c(nc3ccc(O)cc13)-c1cc3c(c(=O)n1C2)COC(=O)[C@]3(O)CC + Cc1cccc(N(C)C(=O)C2C(O)CCN2c2nc(C)cc(C(F)(F)F)c2C#N)c1
IC50 (second compound 0.0316 µM): 3.34 nM
IC50 (second compound 0.1 µM): 3.49 nM
IC50 (second compound 0.316 µM): < 3.16 nM
IC50 (second compound 1 µM): < 3.16 nM
IC50 (second compound 3.16 µM): < 3.16 nM
IC50 (second compound 10 µM): < 3.16 nM
viability, T/C [1]: 52.3%
viability, T/C [2]: 9.87%
viability, T/C [3]: 7.42%
viability, T/C [4]: 5.03%
viability, T/C [5]: 3.07%
viability, T/C [6]: 1.53%
viability, T/C [7]: 53.6%
viability, T/C [8]: 14.6%
viability, T/C [9]: 7.37%
viability, T/C [10]: 4.23%
viability, T/C [11]: 3.04%
viability, T/C [12]: 1.53%
viability, T/C [13]: 46.3%
viability, T/C [14]: 13.7%
viability, T/C [15]: 6.83%
viability, T/C [16]: 5.76%
viability, T/C [17]: 2.86%
viability, T/C [18]: 1.53%
viability, T/C [19]: 44.8%
viability, T/C [20]: 15.2%
viability, T/C [21]: 8.04%
viability, T/C [22]: 5.03%
viability, T/C [23]: 2.97%
viability, T/C [24]: 1.31%
viability, T/C [25]: 40%
viability, T/C [26]: 12.1%
viability, T/C [27]: 6.92%
viability, T/C [28]: 5.22%
viability, T/C [29]: 2.69%
viability, T/C [30]: 1.55%
viability, T/C [31]: 28.5%
viability, T/C [32]: 11.5%
viability, T/C [33]: 7.06%
viability, T/C [34]: 3.56%
viability, T/C [35]: 2.83%
viability, T/C [36]: 2.09%
